Data on 23 molecules can be found in patent US20090304692A1, “TRIAZINE COMPOUNDS AS PI3 KINASE AND MTOR INHIBITORS” (Wyeth, priority 2008, published 2009).

The target in one assay is Human mTOR (FLAG-TOR) (Homo sapiens, UniProt P42345). In words: mTOR kinase assay (DELFIA format, purified enzyme). Type of assay: biochemical. The settings on record: read-out: IC50 mTOR.
A further assay has as its target PI3K-γ (Homo sapiens, UniProt P48736). The assay is described as follows: PI3K-gamma fluorescence polarization assay. The settings on record: read-out: IC50 PI3Kγ.
The target of another assay is PI3K-α (Homo sapiens, UniProt P42336). In words: PI3K-alpha fluorescence polarization assay. Particulars: read-out: IC50 PI3Kα.
PI3K-α, sequence (P42336 whole entry, species assumed): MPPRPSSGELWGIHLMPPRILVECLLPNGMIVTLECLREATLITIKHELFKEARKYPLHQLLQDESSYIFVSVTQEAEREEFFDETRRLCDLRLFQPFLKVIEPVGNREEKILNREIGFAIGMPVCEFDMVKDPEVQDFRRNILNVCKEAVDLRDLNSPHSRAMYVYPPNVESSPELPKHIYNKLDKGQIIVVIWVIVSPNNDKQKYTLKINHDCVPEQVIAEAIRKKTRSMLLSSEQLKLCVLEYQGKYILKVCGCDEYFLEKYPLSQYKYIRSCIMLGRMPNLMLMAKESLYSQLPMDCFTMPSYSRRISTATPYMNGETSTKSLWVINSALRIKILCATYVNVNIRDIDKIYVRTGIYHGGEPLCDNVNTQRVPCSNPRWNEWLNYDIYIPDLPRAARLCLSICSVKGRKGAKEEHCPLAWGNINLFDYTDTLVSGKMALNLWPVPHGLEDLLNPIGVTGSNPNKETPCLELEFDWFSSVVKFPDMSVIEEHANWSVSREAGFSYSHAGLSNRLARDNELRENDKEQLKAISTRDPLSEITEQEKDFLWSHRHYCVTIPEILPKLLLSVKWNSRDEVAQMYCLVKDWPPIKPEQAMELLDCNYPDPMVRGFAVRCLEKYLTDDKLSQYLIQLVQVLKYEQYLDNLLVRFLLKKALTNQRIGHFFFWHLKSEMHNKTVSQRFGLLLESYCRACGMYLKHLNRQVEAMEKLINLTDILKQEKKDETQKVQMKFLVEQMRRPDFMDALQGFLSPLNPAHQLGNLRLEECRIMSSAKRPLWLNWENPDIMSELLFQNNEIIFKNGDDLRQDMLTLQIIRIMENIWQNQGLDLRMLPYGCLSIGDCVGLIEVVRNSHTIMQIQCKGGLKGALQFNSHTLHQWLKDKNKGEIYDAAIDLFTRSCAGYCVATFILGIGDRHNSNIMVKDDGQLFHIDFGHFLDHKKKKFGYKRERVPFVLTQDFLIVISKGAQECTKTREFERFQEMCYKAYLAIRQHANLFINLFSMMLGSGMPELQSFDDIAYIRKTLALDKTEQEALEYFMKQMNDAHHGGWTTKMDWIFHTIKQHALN
PI3K-α, sequence (P27986 whole entry partner, species assumed): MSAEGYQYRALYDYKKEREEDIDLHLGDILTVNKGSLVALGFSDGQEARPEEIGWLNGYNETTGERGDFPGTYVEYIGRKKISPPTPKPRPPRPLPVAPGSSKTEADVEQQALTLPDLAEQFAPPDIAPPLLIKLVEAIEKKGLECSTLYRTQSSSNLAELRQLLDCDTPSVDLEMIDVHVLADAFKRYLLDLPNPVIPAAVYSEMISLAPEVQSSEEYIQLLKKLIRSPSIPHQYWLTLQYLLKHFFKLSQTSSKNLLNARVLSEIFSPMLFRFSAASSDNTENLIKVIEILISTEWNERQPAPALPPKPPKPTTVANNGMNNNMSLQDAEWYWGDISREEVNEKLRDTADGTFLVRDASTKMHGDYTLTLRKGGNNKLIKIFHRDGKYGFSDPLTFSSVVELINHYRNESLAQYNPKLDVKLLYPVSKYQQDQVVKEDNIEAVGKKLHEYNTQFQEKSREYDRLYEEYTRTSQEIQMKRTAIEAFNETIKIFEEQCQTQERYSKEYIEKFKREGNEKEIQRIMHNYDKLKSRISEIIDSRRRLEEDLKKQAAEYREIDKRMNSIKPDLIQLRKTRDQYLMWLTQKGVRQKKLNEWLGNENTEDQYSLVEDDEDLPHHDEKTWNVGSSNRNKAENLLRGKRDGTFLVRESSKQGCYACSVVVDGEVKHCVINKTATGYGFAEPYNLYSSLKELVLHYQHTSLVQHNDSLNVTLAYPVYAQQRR

PI3K-γ, sequence (P48736 whole entry, species assumed): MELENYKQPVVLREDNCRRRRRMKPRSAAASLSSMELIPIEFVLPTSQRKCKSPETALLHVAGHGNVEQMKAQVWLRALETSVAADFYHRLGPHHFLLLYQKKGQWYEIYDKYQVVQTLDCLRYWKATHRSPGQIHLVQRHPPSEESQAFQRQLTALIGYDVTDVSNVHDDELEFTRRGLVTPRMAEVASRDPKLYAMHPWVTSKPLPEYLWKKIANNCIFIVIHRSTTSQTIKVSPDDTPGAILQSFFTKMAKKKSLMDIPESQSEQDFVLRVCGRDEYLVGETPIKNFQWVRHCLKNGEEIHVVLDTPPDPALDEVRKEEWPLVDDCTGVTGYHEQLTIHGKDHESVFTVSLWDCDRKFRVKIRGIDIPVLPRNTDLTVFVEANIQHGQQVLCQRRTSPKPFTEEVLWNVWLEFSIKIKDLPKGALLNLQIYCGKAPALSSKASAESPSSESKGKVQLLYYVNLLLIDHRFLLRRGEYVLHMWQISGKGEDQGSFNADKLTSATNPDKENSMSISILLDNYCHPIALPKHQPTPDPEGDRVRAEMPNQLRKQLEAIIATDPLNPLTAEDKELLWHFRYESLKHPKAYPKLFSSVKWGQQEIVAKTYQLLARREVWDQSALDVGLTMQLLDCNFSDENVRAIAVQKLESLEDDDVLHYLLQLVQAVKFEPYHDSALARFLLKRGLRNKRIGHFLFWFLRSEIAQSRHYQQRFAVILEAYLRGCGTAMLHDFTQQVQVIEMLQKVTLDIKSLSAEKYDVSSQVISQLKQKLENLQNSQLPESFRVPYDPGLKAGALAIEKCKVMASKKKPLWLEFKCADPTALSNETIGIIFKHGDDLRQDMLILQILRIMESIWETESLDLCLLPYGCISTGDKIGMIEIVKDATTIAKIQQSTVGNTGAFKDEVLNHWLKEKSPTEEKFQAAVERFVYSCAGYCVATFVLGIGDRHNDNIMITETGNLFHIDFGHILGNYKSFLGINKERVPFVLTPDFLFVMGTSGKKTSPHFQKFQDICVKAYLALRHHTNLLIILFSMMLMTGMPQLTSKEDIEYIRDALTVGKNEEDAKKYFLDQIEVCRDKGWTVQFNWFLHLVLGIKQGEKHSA
Human mTOR (FLAG-TOR), sequence (P42345 1360-2549 limits assumed): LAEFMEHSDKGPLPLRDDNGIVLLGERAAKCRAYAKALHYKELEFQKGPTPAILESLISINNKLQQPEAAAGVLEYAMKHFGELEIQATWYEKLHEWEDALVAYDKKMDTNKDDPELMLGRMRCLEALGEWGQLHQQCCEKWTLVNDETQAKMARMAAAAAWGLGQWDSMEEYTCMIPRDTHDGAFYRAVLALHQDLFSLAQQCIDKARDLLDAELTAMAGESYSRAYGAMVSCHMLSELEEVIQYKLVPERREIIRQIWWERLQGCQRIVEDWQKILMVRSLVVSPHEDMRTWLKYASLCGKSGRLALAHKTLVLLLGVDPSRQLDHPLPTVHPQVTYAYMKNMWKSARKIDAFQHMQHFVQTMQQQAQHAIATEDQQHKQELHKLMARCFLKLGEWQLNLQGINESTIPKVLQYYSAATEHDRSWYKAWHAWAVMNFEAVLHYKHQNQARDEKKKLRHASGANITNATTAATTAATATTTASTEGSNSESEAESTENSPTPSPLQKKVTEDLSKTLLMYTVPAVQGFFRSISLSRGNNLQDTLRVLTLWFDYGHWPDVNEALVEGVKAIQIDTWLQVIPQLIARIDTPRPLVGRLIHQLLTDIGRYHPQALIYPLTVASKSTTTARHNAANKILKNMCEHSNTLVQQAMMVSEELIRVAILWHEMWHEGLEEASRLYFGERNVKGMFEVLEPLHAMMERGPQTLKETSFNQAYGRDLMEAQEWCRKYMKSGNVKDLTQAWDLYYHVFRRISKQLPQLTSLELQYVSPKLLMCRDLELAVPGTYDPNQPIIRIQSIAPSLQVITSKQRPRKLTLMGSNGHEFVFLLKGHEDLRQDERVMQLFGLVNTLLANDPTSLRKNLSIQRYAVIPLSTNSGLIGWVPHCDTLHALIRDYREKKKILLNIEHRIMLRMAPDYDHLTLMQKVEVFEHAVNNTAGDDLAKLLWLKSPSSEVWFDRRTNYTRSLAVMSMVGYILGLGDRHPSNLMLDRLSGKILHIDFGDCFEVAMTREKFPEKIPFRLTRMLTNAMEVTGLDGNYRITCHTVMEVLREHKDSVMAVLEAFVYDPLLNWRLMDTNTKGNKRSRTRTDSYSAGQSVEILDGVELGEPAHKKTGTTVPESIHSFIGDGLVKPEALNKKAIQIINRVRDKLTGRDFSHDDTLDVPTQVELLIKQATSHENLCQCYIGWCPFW

The term IC50 denotes the concentration that inhibits the measured activity by half. Turning to `COC(=O)c1cccc(NC(=O)Nc2ccc(-c3nc(-c4ccccc4)nc(N4CCOCC4)n3)cc2)c1` [Example 586, methyl 3-({[4-(4-morpholin-4-yl-6-phenyl-1,3,5-triazin-2-yl)phenyl]carbamoyl}amino)benzoate], the IC50 at Human mTOR (FLAG-TOR) was 0.365 µM; at PI3K-γ, 1.25 µM; at PI3K-α, 0.947 µM.
The matching figures for `CCc1nc(-c2ccc(NC(=O)Nc3cccc(C(=O)N4CCN(c5ccccn5)CC4)c3)cc2)nc(N2CCOCC2)n1` [Example 587, 1-[4-(4-ethyl-6-morpholin-4-yl-1,3,5-triazin-2-yl)phenyl]-3-{3-[(4-pyridin-2-ylpiperazin-1-yl)carbonyl]phenyl}urea]: 0.1 µM, 0.675 µM and 0.35 µM.
For `CCc1nc(-c2ccc(NC(=O)Nc3cccc(C(=O)N(C)CCN(C)C)c3)cc2)nc(N2CCOCC2)n1` [Example 588, N-[2-(dimethylamino)ethyl]-3-({[4-(4-ethyl-6-morpholin-4-yl-1,3,5-triazin-2-yl)phenyl]carbamoyl}amino)-N-methylbenzamide] the same measures were 0.054 µM, 2.25 µM and 0.524 µM.
For `CCc1nc(-c2ccc(NC(=O)Nc3cccc(C(=O)N4CCN(C)CC4)c3)cc2)nc(N2CCOCC2)n1` [Example 589, 1-[4-(4-ethyl-6-morpholin-4-yl-1,3,5-triazin-2-yl)phenyl]-3-{3-[(4-methylpiperazin-1-yl)carbonyl]phenyl}urea] the same measures were 0.057 µM, 1.61 µM and 0.718 µM.
Take `O=C(Nc1ccc(-c2nc(-c3ccccc3)nc(N3CCOCC3)n2)cc1)Nc1cccc(C(=O)O)c1` [Example 590, 3-({[4-(4-morpholin-4-yl-6-phenyl-1,3,5-triazin-2-yl)phenyl]carbamoyl}amino)benzoic acid]: the IC50 worked out at 0.049 µM on Human mTOR (FLAG-TOR), 0.404 µM on PI3K-γ and 0.343 µM on PI3K-α.
As for `COC(=O)c1ccc(NC(=O)Nc2ccc(-c3nc(N4CCCCC4)nc(N4CCOCC4)n3)cc2)cc1` [Example 591, methyl 4-({[4-(4-morpholin-4-yl-6-piperidin-1-yl-1,3,5-triazin-2-yl)phenyl]carbamoyl}amino)benzoate], the half-maximal inhibitory concentration (IC50) on Human mTOR (FLAG-TOR) came out at 0.033 µM; at PI3K-γ, 0.726 µM; on PI3K-α, 0.25 µM.
Consider `COC(=O)c1ccc(NC(=O)Nc2ccc(-c3nc(N4CCCC4)nc(N4CCOCC4)n3)cc2)cc1` [Example 594, methyl 4-({[4-(4-morpholin-4-yl-6-pyrrolidin-1-yl-1,3,5-triazin-2-yl)phenyl]carbamoyl}amino)benzoate], for which the results for the 50% inhibitory concentration (IC50) on Human mTOR (FLAG-TOR), on PI3K-γ and on PI3K-α were 0.022 µM, 0.744 µM and 0.35 µM, respectively.
Turning to `O=C(Nc1ccc(C(=O)O)cc1)Nc1ccc(-c2nc(N3CCCC3)nc(N3CCOCC3)n2)cc1` [Example 599, 4-({[4-(4-morpholin-4-yl-6-pyrrolidin-1-yl-1,3,5-triazin-2-yl)phenyl]carbamoyl}amino)benzoic acid], the IC50 is 0.013 µM on Human mTOR (FLAG-TOR), 0.19 µM on PI3K-γ and 0.0645 µM at PI3K-α.
Take `O=C(Nc1ccncc1)Nc1ccc(-c2nc(N3CCCC3)nc(N3CCOCC3)n2)cc1` [Example 600, 1-[4-(4-morpholin-4-yl-6-pyrrolidin-1-yl-1,3,5-triazin-2-yl)phenyl]-3-pyridin-4-ylurea]: the IC50 on Human mTOR (FLAG-TOR) was 0.008 µM; on PI3K-γ it was 0.162 µM; at PI3K-α, 0.0455 µM.
Regarding `C[C@H]1COCCN1c1nc(-c2ccc(NC(=O)Nc3ccc(C(=O)O)cc3)cc2)nc(N2CCOCC2)n1` [Example 619, 4-{[(4-{4-[(3S)-3-methylmorpholin-4-yl]-6-morpholin-4-yl-1,3,5-triazin-2-yl}phenyl)carbamoyl]amino}benzoic acid], the IC50 at Human mTOR (FLAG-TOR) amounted to 0.001 µM; on PI3K-γ, 0.137 µM; on PI3K-α, 0.033 µM.
`C[C@@H]1COCCN1c1nc(-c2ccc(NC(=O)Nc3ccc(C(=O)O)cc3)cc2)nc(N2CCOC[C@@H]2C)n1` [Example 626, 4-{[(4-{4-[(3R)-3-methylmorpholin-4-yl]-6-[(3S)-3-methylmorpholin-4-yl]-1,3,5-triazin-2-yl}phenyl)carbamoyl]amino}benzoic acid]: the values for the IC50 on Human mTOR (FLAG-TOR), at PI3K-γ and at PI3K-α were 0.001 µM, 0.208 µM and 0.059 µM, respectively.
In the case of `CCCC1CCN(C(=O)c2ccc(NC(=O)Nc3ccc(-c4nc(N5CCOC[C@@H]5C)nc(N5CCOC[C@@H]5C)n4)cc3)cc2)CC1` [Example 636, 1-(4-{4,6-bis[(3S)-3-methylmorpholin-4-yl]-1,3,5-triazin-2-yl}phenyl)-3-{4-[(4-propylpiperidin-1-yl)carbonyl]phenyl}urea], the IC50 at Human mTOR (FLAG-TOR) amounted to 0.027 µM; on PI3K-γ, 0.469 µM; at PI3K-α it was 0.231 µM.
For `O=C(Nc1ccncc1)Nc1ccc(-c2nc(N3CCOCC3)nc(N3CCN(C45CC6CC(CC(C6)C4)C5)CC3)n2)cc1` [Example 640, 1-{4-[4-morpholin-4-yl-6-(4-tricyclo[3.3.1.13,7]dec-1-ylpiperazin-1-yl)-1,3,5-triazin-2-yl]phenyl}-3-pyridin-4-ylurea] the same measures were 2.8 µM, 0.795 µM and 0.345 µM.
The matching figures for `COC(=O)c1ccc(NC(=O)Nc2ccc(-c3nc(N4CCOCC4)nc(N4CCN(C(=O)N(C)C)CC4)n3)cc2)cc1` [Example 641, methyl 4-{[(4-{4-[4-(dimethylcarbamoyl)piperazin-1-yl]-6-morpholin-4-yl-1,3,5-triazin-2-yl}phenyl)carbamoyl]amino}benzoate]: 0.007 µM, 0.276 µM and 0.0885 µM.
For `CN(C)C(=O)N1CCN(c2nc(-c3ccc(NC(=O)Nc4ccncc4)cc3)nc(N3CCOCC3)n2)CC1` [Example 642, N,N-dimethyl-4-(4-morpholin-4-yl-6-{4-[(pyridin-4-ylcarbamoyl)amino]phenyl}-1,3,5-triazin-2-yl)piperazine-1-carboxamide] the same measures were 0.001 µM, 0.255 µM and 0.069 µM.
As for `CCCC1CCN(C(=O)c2ccc(NC(=O)Nc3ccc(-c4nc(N5CCOCC5)nc(N5CCN(C(=O)N(C)C)CC5)n4)cc3)cc2)CC1` [Example 645, N,N-dimethyl-4-(4-morpholin-4-yl-6-{4-[({4-[(4-propylpiperidin-1-yl)carbonyl]phenyl}carbamoyl)amino]phenyl}-1,3,5-triazin-2-yl)piperazine-1-carboxamide], the half-inhibitory concentration (IC50) came to 0.12 µM at Human mTOR (FLAG-TOR), 0.231 µM at PI3K-γ and 0.105 µM at PI3K-α.
For `CCS(=O)(=O)N1CCN(c2nc(-c3ccc(NC(=O)Nc4ccncc4)cc3)nc(N3CCOCC3)n2)CC1` [Example 650, 1-(4-{4-[4-(ethylsulfonyl)piperazin-1-yl]-6-morpholin-4-yl-1,3,5-triazin-2-yl}phenyl)-3-pyridin-4-ylurea], the 50% inhibitory concentration (IC50) at Human mTOR (FLAG-TOR) was 0.022 µM; at PI3K-γ, 0.104 µM; at PI3K-α, 0.0235 µM.
The matching figures for `CCS(=O)(=O)N1CCN(c2nc(-c3ccc(NC(=O)Nc4ccc(C(=O)OC)cc4)cc3)nc(N3CCOCC3)n2)CC1` [Example 651, methyl 4-{[(4-{4-[4-(ethylsulfonyl)piperazin-1-yl]-6-morpholin-4-yl-1,3,5-triazin-2-yl}phenyl)carbamoyl]amino}benzoate]: 0.014 µM, 0.247 µM and 0.071 µM.
As to `CCS(=O)(=O)N1CCN(c2nc(-c3ccc(NC(=O)Nc4ccc(C(=O)O)cc4)cc3)nc(N3CCOCC3)n2)CC1` [Example 652, 4-{[(4-{4-[4-(ethylsulfonyl)piperazin-1-yl]-6-morpholin-4-yl-1,3,5-triazin-2-yl}phenyl)carbamoyl]amino}benzoic acid], the concentration for half-maximal inhibition (IC50) amounted to 0.004 µM at Human mTOR (FLAG-TOR), 0.0845 µM at PI3K-γ and 0.036 µM on PI3K-α.
The matching figures for `CCS(=O)(=O)N1CCN(c2nc(-c3ccc(NC(=O)Nc4ccc(C(=O)NCCCN(C)C)cc4)cc3)nc(N3CCOCC3)n2)CC1` [Example 653, N-[3-(dimethylamino)propyl]-4-{[(4-{4-[4-(ethylsulfonyl)piperazin-1-yl]-6-morpholin-4-yl-1,3,5-triazin-2-yl}phenyl)carbamoyl]amino}benzamide]: 0.007 µM, 0.034 µM and 0.0041 µM.
`CCS(=O)(=O)N1CCN(c2nc(-c3ccc(NC(=O)Nc4ccc(C(=O)NCCN(C)C)cc4)cc3)nc(N3CCOCC3)n2)CC1` [Example 654, N-[2-(dimethylamino)ethyl]-4-{[(4-{4-[4-(ethylsulfonyl)piperazin-1-yl]-6-morpholin-4-yl-1,3,5-triazin-2-yl}phenyl)carbamoyl]amino}benzamide]: the half-inhibitory concentration (IC50) at Human mTOR (FLAG-TOR) is 0.008 µM; on PI3K-γ it was 0.07 µM; at PI3K-α it was 0.006 µM.
Consider `CC(C)N1CCCN(c2nc(-c3ccc(NC(=O)Nc4ccc(C(=O)O)cc4)cc3)nc(N3CCOCC3)n2)CC1` [Example 655, 4-{[(4-{4-[4-(1-methylethyl)-1,4-diazepan-1-yl]-6-morpholin-4-yl-1,3,5-triazin-2-yl}phenyl)carbamoyl]amino}benzoic acid], for which the half-maximal inhibitory concentration (IC50) worked out at 0.625 µM on Human mTOR (FLAG-TOR), 0.746 µM on PI3K-γ and 0.0915 µM at PI3K-α.
In the case of `COC(=O)c1ccc(NC(=O)Nc2ccc(-c3nc(N4CCOCC4)nc(N4CCC(NC(C)=O)CC4)n3)cc2)cc1` [Example 656, methyl 4-{[(4-{4-[4-(acetylamino)piperidin-1-yl]-6-morpholin-4-yl-1,3,5-triazin-2-yl}phenyl)carbamoyl]amino}benzoate], the concentration for half-maximal inhibition (IC50) on Human mTOR (FLAG-TOR) stood at 0.019 µM; on PI3K-γ, 0.651 µM; at PI3K-α it was 0.073 µM.
